Our source for the IC50 values is patent publication US8143290B2, “Chemical compounds 572” (AstraZeneca AB, priority 2006, dated 2012).

The target in this experiment is T1, recombinant human GR (Homo sapiens, UniProt P04150).
T1 construct: purchased Panvera/Invitrogen P2812 (kit P2893)
T1 sequence (P04150 1-777): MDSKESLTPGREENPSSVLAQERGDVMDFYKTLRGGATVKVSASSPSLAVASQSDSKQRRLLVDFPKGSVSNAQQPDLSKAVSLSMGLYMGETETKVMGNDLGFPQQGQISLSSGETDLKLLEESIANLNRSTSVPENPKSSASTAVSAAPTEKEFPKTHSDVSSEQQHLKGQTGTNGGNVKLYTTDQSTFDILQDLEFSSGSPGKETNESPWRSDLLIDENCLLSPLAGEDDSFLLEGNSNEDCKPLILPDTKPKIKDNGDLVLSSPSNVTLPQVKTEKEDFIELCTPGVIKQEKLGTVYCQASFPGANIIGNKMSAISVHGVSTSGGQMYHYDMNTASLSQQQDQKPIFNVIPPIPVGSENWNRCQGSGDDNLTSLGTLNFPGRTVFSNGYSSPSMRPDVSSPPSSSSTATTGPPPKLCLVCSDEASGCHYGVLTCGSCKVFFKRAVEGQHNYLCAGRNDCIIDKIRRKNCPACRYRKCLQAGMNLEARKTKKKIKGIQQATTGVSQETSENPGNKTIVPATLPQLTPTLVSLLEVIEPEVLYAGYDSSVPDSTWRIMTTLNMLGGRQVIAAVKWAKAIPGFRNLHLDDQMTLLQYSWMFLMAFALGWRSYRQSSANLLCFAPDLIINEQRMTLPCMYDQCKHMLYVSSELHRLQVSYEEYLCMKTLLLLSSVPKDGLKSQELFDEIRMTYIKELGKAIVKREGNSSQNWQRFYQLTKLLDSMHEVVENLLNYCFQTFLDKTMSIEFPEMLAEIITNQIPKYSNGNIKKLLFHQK
In words: Human Glucocorticoid Receptor (GR) Assay, fluorescence polarization. In kind it is binding. The conditions noted are these: GS Red tracer, incubated 2 h at r.t., XLfit model 205, read-out: GRhuFL_FP_v2 Mean IC50. As for the experimental part: Human Glucocorticoid Receptor (GR) Assay
The assay is based on a commercial kit from Panvera/Invitrogen (Part number P2893). The assay technology is fluorescence polarization. […] The GR and Stabilizing Peptide reagents are stored at −70° C. while the GS Red is stored at −20° C. Also included in the kit are 1M DTT (Panvera, Part number P2325, stored at −20° C.) and GR Screening buffer 10× (Panvera, Part number P2814, stored at −70° C. initially but once thawed stored at r.t.). Avoid repeated freeze/thaws for all reagents. The GR Screening buffer 10× comprises 100 mM potassium phosphate, 200 mM sodium molybdate, 1 mM EDTA and 20% DMSO.
0% control was 100% DMSO and 100% control was […] Dexamethasone. Background solution (8 μL; assay buffer 10×, Stabilizing Peptide, DTT and ice cold MQ water) was added to the background wells. GS Red solution (7 μL; assay buffer 10×, Stabilizing Peptide, DTT, GS Red and ice cold water) was added to all wells except background wells. GR solution (7 μL; assay buffer 10×, Stabilizing Peptide, DTT, GR and ice cold water) was added to all wells. The plate was sealed and incubated in a dark at r.t. for 2 h.

`COc1cccc([C@@H](Oc2ccc3c(cnn3-c3ccc(F)cc3)c2)[C@H](C)NC(=O)CF)c1` [Example 53, 2-Fluoro-N-[(1R,2S)-1-[1-(4-fluorophenyl)indazol-5-yl]oxy-1-(3-methoxyphenyl)propan-2-yl]acetamide]: the IC50 amounted to 3.5 nM.

As to `COCC(=O)N[C@@H](C)[C@H](Oc1ccc2c(cnn2-c2ccc(F)cc2)c1)c1cccc(OC)c1` [Example 54, N-[(1R,2S)-1-[1-(4-fluorophenyl)indazol-5-yl]oxy-1-(3-methoxyphenyl)propan-2-yl]-2-methoxy-acetamide], the IC50 came out at 2.9 nM.

In the case of `COc1cccc([C@@H](Oc2ccc3c(cnn3-c3ccc(F)cc3)c2)[C@H](C)NC(=O)C(C)C)c1` [Example 55, N-[(1R,2S)-1-[1-(4-fluorophenyl)indazol-5-yl]oxy-1-(3-methoxyphenyl)propan-2-yl]-2-methyl-propanamide], the IC50 was found to be 3.3 nM.

As for `COc1cccc([C@@H](Oc2ccc3c(cnn3-c3ccc(F)cc3)c2)[C@H](C)NC(=O)C2CCCC2)c1` [Example 56, N-[(1R,2S)-1-[1-(4-fluorophenyl)indazol-5-yl]oxy-1-(3-methoxyphenyl)propan-2-yl]cyclopentanecarboxamide], the IC50 was 4.4 nM.

Regarding `COc1cccc([C@@H](Oc2ccc3c(cnn3-c3ccc(F)cc3)c2)[C@H](C)NC(=O)[C@@H](C)O)c1` [Example 57, (2R)-N-[(1R,2S)-1-[1-(4-fluorophenyl)indazol-5-yl]oxy-1-(3-methoxyphenyl)propan-2-yl]-2-hydroxy-propanamide], the IC50 was 4.1 nM.

`COc1cccc([C@@H](Oc2ccc3c(cnn3-c3ccc(F)cc3)c2)[C@H](C)NC(=O)[C@H](C)O)c1` [Example 58, (2S)-N-[(1R,2S)-1-[1-(4-fluorophenyl)indazol-5-yl]oxy-1-(3-methoxyphenyl)propan-2-yl]-2-hydroxy-propanamide]: the IC50 turned out to be 2.7 nM.

`COCC(=O)N[C@@H](C)[C@H](Oc1ccc2c(cnn2-c2ccc(F)cc2)c1)c1ccc(C(F)(F)F)cc1` [Example 59, N-[(1R,2S)-1-[1-(4-fluorophenyl)indazol-5-yl]oxy-1-[4-(trifluoromethyl)phenyl]propan-2-yl]-2-methoxy-acetamide]: the IC50 worked out at 3.3 nM.

Take `C[C@H](NC(=O)CO)[C@H](Oc1ccc2c(cnn2-c2ccc(F)cc2)c1)c1ccc(C(F)(F)F)cc1` [Example 60, N-[(1R,2S)-1-[1-(4-fluorophenyl)indazol-5-yl]oxy-1-[4-(trifluoromethyl)phenyl]propan-2-yl]-2-hydroxy-acetamide]: the IC50 was 3.3 nM.

As to `CCC(=O)N[C@@H](C)[C@H](Oc1ccc2c(cnn2-c2ccc(F)cc2)c1)c1ccc(C(F)(F)F)cc1` [Example 61, N-[(1R,2S)-1-[1-(4-fluorophenyl)indazol-5-yl]oxy-1-[4-(trifluoromethyl)phenyl]propan-2-yl]propanamide], the IC50 is 3.3 nM.

With `Cc1cc2c(cnn2-c2ccc(F)cc2)cc1O[C@H](c1ccccc1)[C@H](C)NC(=O)C(F)(F)F` [Example 62, 2,2,2-Trifluoro-N-[(1R,2S)-1-[1-(4-fluorophenyl)-6-methyl-indazol-5-yl]oxy-1-phenyl-propan-2-yl]acetamide], the IC50 worked out at 3.5 nM.

Take `Cc1cc2c(cnn2-c2ccc(F)cc2)cc1O[C@H](c1ccccc1)[C@H](C)NC(=O)C(C)(C)C` [Example 63, N-[(1R,2S)-1-[1-(4-Fluorophenyl)-6-methyl-indazol-5-yl]oxy-1-phenyl-propan-2-yl]-2,2-dimethyl-propanamide]: the half-maximal inhibitory concentration (IC50) worked out at 4.4 nM.

Turning to `Cc1cc2c(cnn2-c2ccc(F)cc2)cc1O[C@H](c1ccccc1)[C@H](C)NC(=O)CO` [Example 64, N-[(1R,2S)-1-[1-(4-Fluorophenyl)-6-methyl-indazol-5-yl]oxy-1-phenyl-propan-2-yl]-2-hydroxy-acetamide], the IC50 was 3.9 nM.

On to `COc1cccc([C@@H](Oc2cc3cnn(-c4ccc(F)cc4)c3cc2C)[C@H](C)NC(=O)C(F)(F)F)c1` [Example 65, 2,2,2-Trifluoro-N-[(1R,2S)-1-[1-(4-fluorophenyl)-6-methyl-indazol-5-yl]oxy-1-(3-methoxyphenyl)propan-2-yl]acetamide], for which the IC50 worked out at 3.8 nM.

As for `COc1cccc([C@@H](Oc2cc3cnn(-c4ccc(F)cc4)c3cc2C)[C@H](C)NC(=O)C(C)(C)C)c1` [Example 66, N-[(1R,2S)-1-[1-(4-Fluorophenyl)-6-methyl-indazol-5-yl]oxy-1-(3-methoxyphenyl)propan-2-yl]-2,2-dimethyl-propanamide], the IC50 came out at 4.2 nM.

As to `COc1cccc([C@@H](Oc2cc3cnn(-c4ccc(F)cc4)c3cc2C)[C@H](C)NC(=O)CO)c1` [Example 67, N-[(1R,2S)-1-[1-(4-Fluorophenyl)-6-methyl-indazol-5-yl]oxy-1-(3-methoxyphenyl)propan-2-yl]-2-hydroxy-acetamide], the IC50 was 4.1 nM.

Turning to `COCCOCC(=O)N[C@@H](C)[C@H](Oc1ccc2c(cnn2-c2ccc(F)cc2)c1)c1cccc(OC)c1` [Example 71, N-[(1R,2S)-1-[1-(4-Fluorophenyl)indazol-5-yl]oxy-1-(3-methoxyphenyl)propan-2-yl]-2-(2-methoxyethoxy)acetamide], the IC50 stood at 4.6 nM.

Turning to `C[C@H](NC(=O)C(F)(F)F)[C@@H](Cc1ccccc1)Oc1ccc2c(cnn2-c2ccc(F)cc2)c1` [Example 72, 2,2,2-Trifluoro-N-[(2S,3R)-3-[1-(4-fluorophenyl)indazol-5-yl]oxy-4-phenyl-butan-2-yl]acetamide], the IC50 stood at 3.7 nM.

Consider `C[C@H](NC(=O)C(C)(C)C)[C@@H](Cc1ccccc1)Oc1ccc2c(cnn2-c2ccc(F)cc2)c1` [Example 73, N-[(2S,3R)-3-[1-(4-Fluorophenyl)indazol-5-yl]oxy-4-phenyl-butan-2-yl]-2,2-dimethyl-propanamide], for which the 50% inhibitory concentration (IC50) came to 5.1 nM.

`C[C@H](NC(=O)CO)[C@@H](Cc1ccccc1)Oc1ccc2c(cnn2-c2ccc(F)cc2)c1` [Example 74, N-[(2S,3R)-3-[1-(4-Fluorophenyl)indazol-5-yl]oxy-4-phenyl-butan-2-yl]-2-hydroxy-acetamide]: the IC50 worked out at 3.7 nM.

For `COc1cccc([C@@H](Oc2ccc3c(cnn3-c3ccc(F)cc3)c2)[C@H](C)NC(=O)C(=O)OC(C)(C)C)c1` [Example 75, tert-Butyl [(1R,2S)-1-[1-(4-fluorophenyl)indazol-5-yl]oxy-1-(3-methoxyphenyl)propan-2-yl]carbamoylformate], the IC50 worked out at 5.3 nM.

For the molecule `COc1cccc([C@@H](Oc2ccc3c(cnn3-c3ccc(F)cc3)c2)[C@H](C)NC(=O)C(N)=O)c1` [Example 76, N-[(1R,2S)-1-[1-(4-Fluorophenyl)indazol-5-yl]oxy-1-(3-methoxyphenyl)propan-2-yl]oxamide], the IC50 amounted to 2.2 nM.

For `COc1cccc([C@@H](Oc2ccc3c(cnn3-c3ccc(F)cc3)c2)[C@H](C)NC(=O)C(=O)OC(C)C)c1` [Example 77, Propan-2-yl [(1R,2S)-1-[1-(4-fluorophenyl)indazol-5-yl]oxy-1-(3-methoxyphenyl)propan-2-yl]carbamoylformate], the IC50 is 2.6 nM.

Regarding `CCOC(=O)C(=O)N[C@@H](C)[C@H](Oc1ccc2c(cnn2-c2ccc(F)cc2)c1)c1cccc(OC)c1` [Example 78, Ethyl [(1R,2S)-1-[1-(4-fluorophenyl)indazol-5-yl]oxy-1-(3-methoxyphenyl)propan-2-yl]carbamoylformate], the IC50 was found to be 3.2 nM.

On to `CNC(=O)C(=O)N[C@@H](C)[C@H](Oc1ccc2c(cnn2-c2ccc(F)cc2)c1)c1cccc(OC)c1` [Example 79, N-[(1R,2S)-1-[1-(4-Fluorophenyl)indazol-5-yl]oxy-1-(3-methoxyphenyl)propan-2-yl]-N′-methyl-oxamide], for which the IC50 came to 2.6 nM.

Take `COc1cccc([C@@H](Oc2ccc3c(cnn3-c3ccc(F)cc3)c2)[C@H](C)NC(=O)C(=O)N(C)C)c1` [Example 80, N-[(1R,2S)-1-[1-(4-Fluorophenyl)indazol-5-yl]oxy-1-(3-methoxyphenyl)propan-2-yl]-N′,N′-dimethyl-oxamide]: the IC50 was determined as 3.7 nM.

Broadly, the IC50 is the concentration that inhibits the measured activity by half.
